The values below are quoted from earlier work in PMC6021394, “Novel haptens and monoclonal antibodies with subnanomolar affinity for a classical analytical target, ochratoxin A” (Scientific Reports, 2018).

The structures appear in SMILES notation.

Take `C[C@@H]1Cc2c(Cl)cc(C(=O)N[C@@H](Cc3ccccc3)C(=O)O)c(O)c2C(=O)O1` [OTA, Ochratoxin A]: the tolerable weekly intake (European Food Safety Authority) is 120 ng/kg of body weight. For the same molecule, for the setting “possibly carcinogenic to humans”, the IARC carcinogenicity classification entry is reported as “group 2B”.
